The values that follow come from patent US5561042A, “Diamine platinum naphthalimide complexes as antitumor agents” (Cancer Therapy and Research Center, priority 1995, dated 1996).

In brackets after ≈: the same amount, converted by molar mass. Entries after “also recorded” stand apart in the source; their conditions may differ.

Data set [1] relates to DNA. The data set is described as follows: Ethidium bromide displacement, DNA binding in general. On the procedure:
(§1) The binding of the bis-naphthalimides to DNA and to synthetic polynucleotide duplexes was determined by an ethidium bromide displacement assay that measures the reduction of fluorescence when ethidium bromide is displaced from DNA (Baguley, 1981). The fluorescence intensity of a 3 ml solution containing 9.3 mM NaCl, 2 mM Tris-HCl (pH 7.0), 100 μM EDTA, 1 μM DNA (in nucleotides) and 1.26 μM ethidium bromide in a quartz cuvette was measured at the excitation (546 nm) and emission (600 nm) wavelengths on a Shimadzu RF5000U spectrofluorometer. Graded concentrations of agent were then added and the fluorescence intensity was measured. The concentration of compound required to reduce the fluorescence intensity by 50% of that of control (FI50) was determined. Therefore, the lower the FI50 the stronger the binding affinity a particular compound has for DNA.
The ability of bis-naphthalimides of the present invention and the known anti-cancer agents compound 22 and DMP840, (R,R)-2,2'[1,2-ethanediylbis[imino(1-methyl-2,1-ethanediyl)]]-bis[5-nitro- 1H benz[de]isoquinoline-1,3-(2H)dione]dimethanesulfonate, to bind to DNA and to synthetic oligonucleotide duplexes was measured using an ethidium bromide displacement assay. Ethidium bromide, a known DNA intercalator, has no fluorescence in the absence of DNA; however, fluorescence intensity increases when ethidium bromide binds to DNA. […]

Data set [2] has as its system B16 murine melanoma. The data set is described as follows: B16 melanoma in vivo, survival of B6D2F1 mice. As to conditions: for 60-Day Survivors / Wt. Ch. (%) (Day 7) / T/C: q.d. × 5, i.p.; for T/C: mean survival treated/control.
Experimental: B6D2F1 mice received i.p. inocula of B16 murine melanoma brei prepared from B16 tumors growing subcutaneously in mice (day 0). On day 1, rumored mice were treated with drugs or vehicle control; the route of drug administration and schedule were selected as appropriate for the study in question. If dosing information for agents was not available, the maximum tolerated dose (MTD) was determined in initial dose finding experiments in non-tumored mice. In a typical experiment, drugs were given at their MTD and 1/2 MTD doses i.p. on a daily×5 schedule.
The mean survival times of all groups were calculated, and results were expressed as mean survival of treated mice/mean survival of control mice (T/C)×100%. A T/C value of 150 means that the mice in the treated group lived 50% longer than those of the control group; this is sometimes referred to as the increase in life space, or ILS value.
Mice that survived for 60 days were considered long term survivors, or cures, in the B16 model. The universally accepted cut-off for activity in this model, which has been used for years by the National Cancer Institute, is T/C=125.
Statistics were performed on the data using primarily the log rank p-value test.
The conditions of data set [3]: human, in vivo; cited from earlier work.
Data set [4] deals with topoisomerase II. As to conditions: cited from earlier work.
For data set [5], the target named is Lambda DNA. The data set can be described thus: Ethidium bromide displacement, lambda DNA. Particulars: 1 μM DNA, 1.26 μM ethidium bromide, pH 7.0, read-out: FI50, Lambda DNA. Type of data set: binding. On the procedure: (§2) A 10× Binding solution was prepared by combining 0.93 ml of an aqueous NaCl solution (5M), 2.0 ml of an aqueous Tris HCl (500 mM) solution, 0.1 ml of an EDTA solution (500 mM) and 46.97 ml of water. The resultant solution was 93 mM in NaCl, 20 mM in Tris HCl, and 1 mM in EDTA. Stock DNA solution were prepared as follows: Poly (dG·dC)-(dG·dC) (ε254=8.4/mM; 27-7910-02), poly(dA·dT)-(dA·dT) (ε262=6.6/mM; 27-7870-02), and lambda DNA (ε260-7.0/mM; 27-4111-01) were purchased from Pharmacia. Solutions were prepared by resuspending either poly (dG·dC)-(dG·dC) or poly(dA·dT)-(dA·dT)in 1 ml of 10× DNA Binding Solution. Lambda DNA is already in solution as purchased.
(§3) Poly (dG·dC)-(dG·dC), poly(dA·dt)-(dA·dt) and lambda DNA concentrations were determined as follows: 980 μl of 10× DNA Binding Solution was pipetted into a 1 ml cuvette. A blank was run on the UV spectrophotometer. 20 μl of the DNA stock of unknown concentration was then added into the cuvette. The sample was then scanned between 210 nm to 500 nm and the absorbance recorded at 254 nm for poly(dG·dC)-(dG·dC), at 262 nm for poly(dA·dT)-(dA·dT) and at 260 nm for lambda DNA. The solution was transferred to a clean tube. This procedure was followed for three different solutions with the absorbance taken as the average of the three. The concentration of poly(dG·dC)-(dG·dC) stock was calculated to be A254 /8.4×1000 (in μM). The concentration of poly(dA·dT)-(dA·dT) stock was calculated to be A262 /6.6×1000 (in μM). The concentration of lambda DNA stock was calculated to be A260 /7.0×1000 (in μM).
as §1
(§4) The ability of bis-naphthalimides of the present invention and the known anti-cancer agents compound 22 and DMP840, (R,R)-2,2'[1,2-ethanediylbis[imino(1-methyl-2,1-ethanediyl)]]-bis[5-nitro- 1H benz[de]isoquinoline-1,3-(2H)dione]dimethanesulfonate, to bind to DNA and to synthetic oligonucleotide duplexes was measured using an ethidium bromide displacement assay. Ethidium bromide, a known DNA intercalator, has no fluorescence in the absence of DNA; however, fluorescence intensity increases when ethidium bromide binds to DNA. The ethidium bromide displacement assay measures the decrease in fluorescence intensity caused by DNA-bound ethidium bromide with DNA interacting agents.

Data set [6] deals with poly (dG.dC) - poly (dG.dC). The data set is described as follows: Ethidium bromide displacement, poly(dG.dC)-poly(dG.dC). Type of data set: binding. Particulars: for Ratio (AT/GC): FI50 poly(dA.dT)-poly(dA.dT) / FI50 poly(dG.dC)-poly(dG.dC); for IC50: ethidium bromide displacement, 1 μM DNA, 1.26 μM ethidium bromide, pH 7.0, read-out: FI50, poly (dG.dC) - poly (dG.dC). On the procedure: as §2, §3, §1, §4

Data set [7] deals with poly (dA.dT) - poly (dA.dT). The data set is described as follows: Ethidium bromide displacement, poly(dA.dT)-poly(dA.dT). Type of data set: binding. Particulars: 1 μM DNA, 1.26 μM ethidium bromide, pH 7.0, read-out: FI50, poly (dA.dT) - poly (dA.dT). On the procedure:
as §2, §3, §1, §4

In data set [8] the test system is Murine B16 melanoma cell line. The data set is described as follows: In vitro growth inhibition (MTT), B16 melanoma. Type of data set: cell-based. As to conditions: for IC50: Mus musculus, B16, 72 h, MTT, 3 days. From the text:
(§5) P388 murine leukemic cell line was obtained from the DCT Tumor Repository (National Cancer Institute, Frederick Cancer Research and Development, Frederick Md. 21702). HT29 Human Colon Carcinoma cell line was obtained from the American Type Culture Collection (12301 Parklawn Drive, Rockville, Md. 20852). B16 Melanoma cell line was obtained from DuPont Merck Pharmaceutical Company (Glenolden, Pa. 19036). MCF-7 Human Breast Carcinoma cell line was a gift from Dr. K. Osborne (Department of Medicine, The University of Texas Health Science Center at San Antonio, San Antonio, Tex. 78284). All cell lines were incubated at 37° C. in a humidified atmosphere of 5% CO2 -95% air. Murine B16 melanoma cell line was grown in RPMI 1640 medium supplemented with 10% heat-inactivated fetal bovine serum, 2 mM L-glutamine, 50 units/ml penicillin, 50 μg/ml streptomycin, 25 μg/ml gentamycin, 0.75% sodium bicarbonate, 10 mM HEPES buffer (pH 7.4), and 0.06 mg/ml AntiPPLO. Murine P388 leukemic and the human HT-29 colon adenocarcinoma cell lines were maintained in RPMI 1640 medium supplemented with 10% heat-inactivated fetal bovine serum. MCF-7M human breast adenocarcinoma was maintained in IMEM medium supplemented with 5% non heat-inactivated fetal bovine serum and 1 nM insulin.
(§6) Exponentially growing cells (1-2×10^3 cells, unless specified otherwise) in 0.1 ml medium were seeded on day 0 in a 96-well microtiter plate. On day 1, 0.1 ml aliquots of medium containing graded concentrations of test compounds were added in duplicate to the cell plates. After incubation at 37° C. in a humidified incubator for 3 days (P388, B16) or 6 days (HT-29, MCF-7M), the plates were centrifuged briefly and 100 μl of the growth medium was removed. Cell cultures were incubated with 50 μl of 3-(4,5-dimethylthiazol-2-yl)-2,5-diphenyl-tetrazolium bromide [MTT, 1 mg/ml in Dulbecco's phosphate buffered saline (PBS)] for 4 hr at 37° C. The resulting purple formazan precipitate was solubilized with 200 μl of 0.04N HCl in isopropyl alcohol. Absorbance was monitored in a BioRad Model 3550 Microplate Reader at a test wavelength of 570 nm and a reference wavelength of 630 nm. The absorbance was transferred to a PC 486 computer. The IC50 values were determined by a computer program (EZ-ED50) that fit all of the data to the following four-parameterlogistic equation:
(§7) Y=((Am -Ao)/(1+(X/IC50)^n))+Ao
(§8) where Am is the absorbance of control cells, Ao is the absorbance of cells in the presence of highest agent concentration, Y is the observed absorbance, X is the agent concentration, IC50 is the concentration of agent that inhibits the cell growth by 50% of control cells (based on the absorbance) and n is the slope of the curve.

The conditions of data set [9]: human, in vivo; cited from earlier work. The source holds these as a separate data set.
Data set [10] concerns MX-1 human breast carcinoma. Particulars: in vivo; cited from earlier work.
For data set [11], the system named is LX-1 lung carcinoma. As to conditions: in vivo; cited from earlier work.
Data set [12] concerns MCF-7 Human Breast Carcinoma cell line. The data set can be described thus: In vitro growth inhibition (MTT), MCF-7 breast carcinoma. Type of data set: cell-based. Particulars: Homo sapiens, MCF7, 144 h, 6 days.
Source text: as §5, §6, §7, §8

The conditions of data set [13]: cited from earlier work.
For data set [14] the following is noted: in vivo; cited from earlier work.
Data set [15] deals with solid tumor xenografts, human and murine leukemia, doxorubicin resistant cell lines, colon carcinoma cells. As to conditions: cited from earlier work.
Data set [16] relates to DLD-2 human colon adenocarcinoma. As to conditions: in vivo; cited from earlier work.
Data set [17] concerns P388 murine leukemic cell line. The data set can be described thus: In vitro growth inhibition (MTT), P388 leukemia. As to conditions: Mus musculus, P388, 72 h, 3 days. Format: cell-based.
Source text: as §5, §6, §7, §8

As usually defined, the T/C is the result in the treated group divided by that in the control group, in per cent. As for `O=C1c2cccc3cc([N+](=O)[O-])cc(c23)C(=O)N1CCNCCOCCN1C(=O)c2cccc3cc([N+](=O)[O-])cc(c23)C1=O` [Compound 6], the “DNA binding (in words)” value in [1] is given as “dose-dependent decrease in fluorescence intensity”. Moreover, in [2] (15 mg/kg), the “60-Day Survivors” value was determined as 0, the “Wt. Ch. (%) (Day 7)” value is -7.4% and the T/C is given as 210%. In [2] (30 mg/kg), the “60-Day Survivors” value amounted to 0, the “Wt. Ch. (%) (Day 7)” value is recorded as -16.4% and the T/C turned out to be 233%. The “activity against B16 melanoma in vivo (in words)” value in data set [2] (mouse, in vivo) is “potent activity against B16 melanoma in vivo; also recorded: remarkable activity; also recorded: more active in this model than DMP840, compounds 22 and 23, and cytoxan; also recorded: more effective against B16 melanoma compared with DMP840”.
As for `COc1cc(NS(C)(=O)=O)ccc1Nc1c2ccccc2nc2ccccc12` [amsacrine], the “clinical anti-tumor activity (in words)” value in data set [3] is given as “exhibit clinical anti-tumor activity”.
For the molecule `CN(C)CCN1C(=O)c2cccc3cc(N)cc(c23)C1=O` [amonafide], the “inhibition of topoisomerase II (in words)” value in data set [4] is “inhibit topoisomerase II”.
As to `O=C1c2cccc3cc([N+](=O)[O-])cc(c23)C(=O)N1CCOCCOCCN1C(=O)c2cccc3cc([N+](=O)[O-])cc(c23)C1=O` [Compound 19, 5-[2-(3-Nitronaphthalene-1,8-dicarboximido)ethoxy]-1-(3-nitronaphthalene-1,8-dicarboximido)-3-oxapentane], the IC50 amounted to 56000 nM in data set [5], 49000 nM in data set [6], 83000 nM in data set [7] and 51 nM in data set [8]. Further, in data set [6], the “Ratio (AT/GC)” value came to 1.7. For the same molecule, in data set [1], the “DNA binding (in words)” value is recorded as “did not bind to DNA”. Besides, the “anticancer activity against B16 melanoma in vitro (in words)” value in [8] is “potent anticancer activity against this melanoma type”.
`COc1cccc2c1C(=O)c1c(O)c3c(c(O)c1C2=O)C[C@@](O)(C(=O)CO)C[C@@H]3O[C@H]1C[C@H](N)[C@H](O)[C@H](C)O1` [Doxorubicin]: the “cardiomyopathy (in words)” value in data set [9] is “unusual cardiomyopathy”.
With `COc1cccc2c1C(=O)c1c(O)c3c(c(O)c1C2=O)C[C@@](O)(C(C)=O)C[C@@H]3O[C@H]1C[C@H](N)[C@H](O)[C@H](C)O1` [daunorubicin], the “cardiomyopathy (in words)” value in data set [9] is “unusual cardiomyopathy”.
As to `C[C@H](CNCCNC[C@@H](C)N1C(=O)c2cccc3cc([N+](=O)[O-])cc(c23)C1=O)N1C(=O)c2cccc3cc([N+](=O)[O-])cc(c23)C1=O` [DMP840, (R,R)-2,2'[1,2-ethanediylbis[imino (1-methyl-2,1-ethanediyl)]]-bis[5-nitro-1H-benz[de]isoquinoline-1,3-(2H)-dione]dimethanesulfonate], the “anti-tumor activity, MX-1 (in words)” value in data set [10] is “anti-tumor efficacy in vivo”. The “anti-tumor efficacy, LX-1 (in words)” value in [11] is “anti-tumor efficacy in vivo”. Also, the IC50 in data set [5] was 73 nM; in [12], 7 nM; in data set [6] it was 92 nM; in data set [7], 3280 nM; in data set [8], 27 nM; in data set [17] it was 6 nM. Further, in [13], the water solubility is 3400 µg/mL (≈ 5.44 mM). In addition, in data set [6], the “Ratio (AT/GC)” value came to 35.2. Besides, in [14], the “irreversible toxicities (in words)” value was “no irreversible toxicities”. For the same molecule, the “60-Day Survivors” value in [2] (5 mg/kg) and in data set [2] (10 mg/kg) was 0 each time. Further, the “Wt. Ch. (%) (Day 7)” value in data set [2] (5 mg/kg) is “+4.6%”; in data set [2] (10 mg/kg), -0.33%. The T/C came to 156% in [2] (5 mg/kg) and 179% in [2] (10 mg/kg). Also, in [15], the “anti-tumor efficacy in vivo (in words)” value was “anti-tumor efficacy in vivo”. The “anti-tumor activity, DLD-2 (in words)” value in data set [16] is “anti-tumor efficacy in vivo”.
Turning to `O=C1c2c(O)cccc2-c2nn(CCNCCO)c3ccc(NCCNCCO)c1c23` [DuP 941], the “clinical anti-tumor activity (in words)” value in [3] is “exhibit clinical anti-tumor activity”.
